Patent US11098055B2, “Ester ACC inhibitors and uses thereof” (Gilead Apollo, LLC, priority 2015, dated 2021)
≈ marks a conversion by molar mass, not a printed value.

Assays:
[1] = test system: C. parapsilosis ATCC 22019; assay: Anti-Fungal (Candida) Activity Assay, broth microtiter MIC; assay type: cell-based; details: Lodderomyces parapsilosis, ATCC22019, 48 h, 3 replicates, MIC read at 48 h
How it was run: (§1)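 Broth microdilution per CLSI M27-A3 in RPMI 1640 + MOPS, at a final inoculum of 2.5×10^3 CFU/mL. Compound DMSO stocks were diluted in water to a 128 μg/mL working solution. MIC was read visually against the growth control at 48 h.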

[2] = test system: C. albicans ATCC 90028; assay: as above; assay type: cell-based; details: ATCC90028, 48 h, 3 replicates, MIC read at 48 h
How it was run: as §1

[3] = test system: C. krusei ATCC 6258; assay: as above; assay type: cell-based, Candida krusei; details: Pichia kudriavzevii, ATCC6258, 48 h, 3 replicates, MIC read at 48 h
How it was run: as §1

[4] = molecular target: hACC2 (Homo sapiens, UniProt O00763); assay: In vitro ACC2 inhibition assay (ADP-Glo), human ACC2; assay type: biochemical
Sequence of hACC2 (O00763 whole entry): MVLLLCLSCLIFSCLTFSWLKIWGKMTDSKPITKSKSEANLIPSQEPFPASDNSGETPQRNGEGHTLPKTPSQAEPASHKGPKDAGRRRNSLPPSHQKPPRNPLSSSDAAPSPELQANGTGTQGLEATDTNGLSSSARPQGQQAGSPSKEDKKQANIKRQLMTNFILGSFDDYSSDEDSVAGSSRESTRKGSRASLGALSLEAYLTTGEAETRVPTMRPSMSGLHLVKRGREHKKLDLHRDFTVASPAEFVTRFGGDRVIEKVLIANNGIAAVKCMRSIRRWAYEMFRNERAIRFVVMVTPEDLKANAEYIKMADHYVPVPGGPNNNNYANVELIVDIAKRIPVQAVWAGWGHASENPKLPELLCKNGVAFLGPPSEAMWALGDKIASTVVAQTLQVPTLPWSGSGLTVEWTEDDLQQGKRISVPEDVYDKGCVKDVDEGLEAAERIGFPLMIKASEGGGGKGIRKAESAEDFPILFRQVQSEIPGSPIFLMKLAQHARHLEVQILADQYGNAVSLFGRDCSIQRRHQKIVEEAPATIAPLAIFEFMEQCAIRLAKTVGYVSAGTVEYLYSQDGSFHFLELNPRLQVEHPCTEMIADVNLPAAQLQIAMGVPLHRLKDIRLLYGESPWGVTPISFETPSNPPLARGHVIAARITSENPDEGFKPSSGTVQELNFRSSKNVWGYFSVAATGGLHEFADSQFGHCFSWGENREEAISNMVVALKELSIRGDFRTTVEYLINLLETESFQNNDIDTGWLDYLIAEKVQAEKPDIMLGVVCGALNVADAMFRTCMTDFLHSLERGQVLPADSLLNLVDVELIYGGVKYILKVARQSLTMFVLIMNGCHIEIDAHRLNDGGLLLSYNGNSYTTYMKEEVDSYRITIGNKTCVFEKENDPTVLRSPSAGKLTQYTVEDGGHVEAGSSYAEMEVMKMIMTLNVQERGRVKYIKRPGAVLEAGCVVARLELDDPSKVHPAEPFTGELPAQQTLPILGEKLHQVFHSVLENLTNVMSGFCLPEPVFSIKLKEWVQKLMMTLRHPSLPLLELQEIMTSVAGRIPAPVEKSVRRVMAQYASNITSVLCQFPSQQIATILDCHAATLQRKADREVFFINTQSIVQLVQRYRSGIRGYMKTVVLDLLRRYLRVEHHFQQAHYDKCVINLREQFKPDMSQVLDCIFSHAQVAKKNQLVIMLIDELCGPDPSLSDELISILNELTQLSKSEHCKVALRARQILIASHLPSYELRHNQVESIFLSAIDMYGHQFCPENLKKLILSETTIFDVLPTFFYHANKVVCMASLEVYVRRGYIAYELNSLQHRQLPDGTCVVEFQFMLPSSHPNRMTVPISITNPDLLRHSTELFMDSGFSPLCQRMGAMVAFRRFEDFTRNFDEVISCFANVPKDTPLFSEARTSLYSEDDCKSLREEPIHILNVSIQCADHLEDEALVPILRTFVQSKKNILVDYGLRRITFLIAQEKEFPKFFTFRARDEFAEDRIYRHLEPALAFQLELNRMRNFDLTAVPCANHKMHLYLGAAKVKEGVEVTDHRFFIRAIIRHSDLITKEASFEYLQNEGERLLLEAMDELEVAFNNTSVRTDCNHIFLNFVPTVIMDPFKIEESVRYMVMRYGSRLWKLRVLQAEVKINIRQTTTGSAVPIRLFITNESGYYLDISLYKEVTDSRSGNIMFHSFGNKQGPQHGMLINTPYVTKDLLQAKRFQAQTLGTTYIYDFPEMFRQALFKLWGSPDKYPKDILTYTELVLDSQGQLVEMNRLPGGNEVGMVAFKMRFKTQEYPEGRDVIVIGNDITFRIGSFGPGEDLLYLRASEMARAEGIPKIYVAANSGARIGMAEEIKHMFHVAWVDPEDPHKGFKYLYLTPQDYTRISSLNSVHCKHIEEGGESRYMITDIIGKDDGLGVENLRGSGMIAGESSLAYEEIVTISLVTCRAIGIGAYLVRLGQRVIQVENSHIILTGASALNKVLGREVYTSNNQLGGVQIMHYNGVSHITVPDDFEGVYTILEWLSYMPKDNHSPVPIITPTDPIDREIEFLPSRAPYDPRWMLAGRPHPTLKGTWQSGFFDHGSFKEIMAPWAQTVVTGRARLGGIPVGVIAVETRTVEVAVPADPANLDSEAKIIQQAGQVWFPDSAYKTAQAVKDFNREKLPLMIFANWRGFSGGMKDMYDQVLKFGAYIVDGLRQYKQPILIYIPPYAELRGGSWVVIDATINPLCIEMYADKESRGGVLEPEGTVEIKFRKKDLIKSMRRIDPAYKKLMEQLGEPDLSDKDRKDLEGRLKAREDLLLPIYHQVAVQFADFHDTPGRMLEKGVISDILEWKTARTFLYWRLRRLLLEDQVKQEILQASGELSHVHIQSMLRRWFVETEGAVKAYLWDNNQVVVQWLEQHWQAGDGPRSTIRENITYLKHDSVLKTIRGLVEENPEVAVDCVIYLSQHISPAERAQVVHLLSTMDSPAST
How it was run: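 ADP-Glo luminescent ADP detection with 5 nM ACC2, 20 μM ATP, 20 μM acetyl-CoA, 12 mM NaHCO3, 2 mM DTT, 5% DMSO; compound (30 μM-0.00051 μM, 11 points) preincubated 15 min, reaction 60 min at room temperature. Percent inhibition against DMSO and positive controls; IC50 by four-parameter nonlinear fit.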

CCOC(=O)c1sc2c(c1C)c(=O)n(C(C)(C)C(=O)N1CCCC1)c(=O)n2C[C@H](OC1CCOCC1)c1ccccc1OC [Compound I-3, ethyl (R)-1-(2-(2-methoxyphenyl)-2-((tetrahydro-2H-pyran-4-yl)oxy)ethyl)-5-methyl-3-(2-methyl-1-oxo-1-(pyrrolidin-1-yl)propan-2-yl)-2,4-dioxo-1,2,3,4-tetrahydrothieno[2,3-d]pyrimidine-6-carboxylate]
MIC ([1]; Table 3a): 0.25 to 1 µg/mL (≈ 0.398 to 1.59 µM)
MIC ([1]; Table 3b (additional results)): 0.25 to 1 µg/mL (≈ 0.398 to 1.59 µM)
MIC ([2]; Table 3a): 0.25 to 1 µg/mL (≈ 0.398 to 1.59 µM)
MIC ([2]; Table 3b (additional results)): 0.25 to 1 µg/mL (≈ 0.398 to 1.59 µM)
MIC ([3]; Table 3a): 0.25 to 1 µg/mL (≈ 0.398 to 1.59 µM)
MIC ([3]; Table 3b (additional results)): 2.1 to 4 µg/mL (≈ 3.35 to 6.37 µM)
IC50 ([4]; Table 2a): 10 to 40 nM
IC50 ([4]; Table 2b (additional results)): 10 to 40 nM

CCOC(=O)c1sc2c(c1C)c(=O)n([C@H](C)C(=O)NC(C)C)c(=O)n2C[C@H](O)c1cc(F)ccc1OC [Compound I-43, ethyl 1-((R)-2-(5-fluoro-2-methoxyphenyl)-2-hydroxyethyl)-3-((R)-1-(isopropylamino)-1-oxopropan-2-yl)-5-methyl-2,4-dioxo-1,2,3,4-tetrahydrothieno[2,3-d]pyrimidine-6-carboxylate]
MIC ([1]; Table 3b (additional results)): 2.1 to 4 µg/mL (≈ 3.92 to 7.47 µM)
MIC ([2]; Table 3b (additional results)): 2.1 to 4 µg/mL (≈ 3.92 to 7.47 µM)
MIC ([3]; Table 3b (additional results)): 2.1 to 4 µg/mL (≈ 3.92 to 7.47 µM)
IC50 ([4]; Table 2b (additional results)): ≥ 40 nM

CCOC(=O)c1sc2c(c1C)c(=O)n(C(C)(C)C(=O)NC(C)C)c(=O)n2C[C@H](OCCOC)c1cc(F)ccc1OC [Compound I-11, (R)-ethyl 1-(2-(5-fluoro-2-methoxyphenyl)-2-(2-methoxy-ethoxy)ethyl)-3-(1-(isopropylamino)-2-methyl-1-oxopropan-2-yl)-5-methyl-2,4-dioxo-1,2,3,4-tetrahydrothieno[2,3-d]pyrimidine-6-carboxylate]
MIC ([1]; Table 3a): 2.1 to 4 µg/mL (≈ 3.46 to 6.58 µM)
MIC ([1]; Table 3b (additional results)): 1.1 to 2 µg/mL (≈ 1.81 to 3.29 µM)
MIC ([2]; Table 3a): 2.1 to 4 µg/mL (≈ 3.46 to 6.58 µM)
MIC ([2]; Table 3b (additional results)): 2.1 to 4 µg/mL (≈ 3.46 to 6.58 µM)
MIC ([3]; Table 3a): 2.1 to 4 µg/mL (≈ 3.46 to 6.58 µM)
MIC ([3]; Table 3b (additional results)): 2.1 to 4 µg/mL (≈ 3.46 to 6.58 µM)
IC50 ([4]; Table 2a): 10 to 40 nM
IC50 ([4]; Table 2b (additional results)): 10 to 40 nM

CCOC(=O)c1sc2c(c1C)c(=O)n([C@@H](C)C(=O)N(C)C(C)C)c(=O)n2C[C@H](OCCC#N)c1cc(F)ccc1OC [Compound I-28, ethyl 1-((R)-2-(2-cyanoethoxy)-2-(5-fluoro-2-methoxy-phenyl)-ethyl)-3-((S)-1-(isopropyl(methyl)amino)-1-oxopropan-2-yl)-5-methyl-2,4-dioxo-1,2,3,4-tetrahydrothieno[2,3-d]pyrimidine-6-carboxylate]
MIC ([1]; Table 3b (additional results)): 2.1 to 4 µg/mL (≈ 3.48 to 6.64 µM)
MIC ([2]; Table 3b (additional results)): 2.1 to 4 µg/mL (≈ 3.48 to 6.64 µM)
MIC ([3]; Table 3b (additional results)): 0.25 to 1 µg/mL (≈ 0.415 to 1.66 µM)
IC50 ([4]; Table 2b (additional results)): 3 to 10 nM

CCOC(=O)c1sc2c(c1C)c(=O)n(C(C)(C)C(=O)NC(C)C)c(=O)n2C[C@H](OCCC#N)c1ccccc1OC [Compound I-31, ethyl (R)-1-(2-(2-cyanoethoxy)-2-(2-methoxyphenyl)ethyl)-3-(1-(isopropylamino)-2-methyl-1-oxopropan-2-yl)-5-methyl-2,4-dioxo-1,2,3,4-tetrahydrothieno[2,3-d]pyrimidine-6-carboxylate]
MIC ([1]; Table 3b (additional results)): 1.1 to 2 µg/mL (≈ 1.88 to 3.42 µM)
MIC ([2]; Table 3b (additional results)): 0.25 to 1 µg/mL (≈ 0.428 to 1.71 µM)
MIC ([3]; Table 3b (additional results)): 0.25 to 1 µg/mL (≈ 0.428 to 1.71 µM)
IC50 ([4]; Table 2b (additional results)): 3 to 10 nM

CCOC(=O)c1sc2c(c1C)c(=O)n(C(C)(C)C(=O)N1CCCCC1)c(=O)n2C[C@H](OC(C)C)c1ccccc1OC [Compound I-6, (R)-ethyl 1-(2-isopropoxy-2-(2-methoxyphenyl)ethyl)-5-methyl-3-(2-methyl-1-oxo-1-(piperidin-1-yl)propan-2-yl)-2,4-dioxo-1,2,3,4-tetrahydrothieno[2,3-d]pyrimidine-6-carboxylate]
MIC ([1]; Table 3a): > 4.1 µg/mL
MIC ([1]; Table 3b (additional results)): 2.1 to 4 µg/mL (≈ 3.5 to 6.67 µM)
MIC ([2]; Table 3a): 2.1 to 4 µg/mL (≈ 3.5 to 6.67 µM)
MIC ([2]; Table 3b (additional results)): 2.1 to 4 µg/mL (≈ 3.5 to 6.67 µM)
MIC ([3]; Table 3a): 2.1 to 4 µg/mL (≈ 3.5 to 6.67 µM)
MIC ([3]; Table 3b (additional results)): 2.1 to 4 µg/mL (≈ 3.5 to 6.67 µM)
IC50 ([4]; Table 2a): 10 to 40 nM
IC50 ([4]; Table 2b (additional results)): 10 to 40 nM

CCOC(=O)c1sc2c(c1C)c(=O)n([C@H](C)C(=O)N1CCCC1)c(=O)n2C[C@H](OCCC#N)c1cc(F)ccc1OC [Compound I-24, ethyl 1-((R)-2-(2-cyanoethoxy)-2-(5-fluoro-2-methoxy-phenyl)ethyl)-5-methyl-2,4-dioxo-3-((R)-1-oxo-1-(pyrrolidin-1-yl)propan-2-yl)-1,2,3,4-tetrahydrothieno[2,3-d]pyrimidine-6-carboxylate]
MIC ([1]; Table 3b (additional results)): 0.25 to 1 µg/mL (≈ 0.416 to 1.66 µM)
MIC ([2]; Table 3b (additional results)): 2.1 to 4 µg/mL (≈ 3.5 to 6.66 µM)
MIC ([3]; Table 3b (additional results)): 2.1 to 4 µg/mL (≈ 3.5 to 6.66 µM)
IC50 ([4]; Table 2b (additional results)): 3 to 10 nM

CCOC(=O)c1sc2c(c1C)c(=O)n(C(C)(C)C(N)=O)c(=O)n2C[C@H](OCCOC)c1cc(F)ccc1OC [Compound I-10, (R)-ethyl 3-(1-amino-2-methyl-1-oxopropan-2-yl)-1-(2-(5-fluoro-2-methoxyphenyl)-2-(2-methoxyethoxy)ethyl)-5-methyl-2,4-dioxo-1,2,3,4-tetrahydrothieno[2,3-d]pyrimidine-6-carboxylate]
MIC ([1]; Table 3a): > 4.1 µg/mL
MIC ([1]; Table 3b (additional results)): 2.1 to 4 µg/mL (≈ 3.71 to 7.07 µM)
MIC ([2]; Table 3a): > 4.1 µg/mL
MIC ([2]; Table 3b (additional results)): 2.1 to 4 µg/mL (≈ 3.71 to 7.07 µM)
MIC ([3]; Table 3a): > 4.1 µg/mL
MIC ([3]; Table 3b (additional results)): 2.1 to 4 µg/mL (≈ 3.71 to 7.07 µM)
IC50 ([4]; Table 2a): ≥ 40 nM
IC50 ([4]; Table 2b (additional results)): ≥ 40 nM

CCOC(=O)c1sc2c(c1C)c(=O)n(C(C)(C)C(N)=O)c(=O)n2C[C@H](OCCO)c1cc(F)ccc1OC [Compound I-17, (R)-ethyl 3-(1-amino-2-methyl-1-oxopropan-2-yl)-1-(2-(5-fluoro-2-methoxyphenyl)-2-(2-hydroxyethoxy)ethyl)-5-methyl-2,4-dioxo-1,2,3,4-tetrahydro-thieno[2,3-d]pyrimidine-6-carboxylate]
MIC ([1]; Table 3a): > 4.1 µg/mL
MIC ([1]; Table 3b (additional results)): 1.1 to 2 µg/mL (≈ 1.99 to 3.63 µM)
MIC ([2]; Table 3a): > 4.1 µg/mL
MIC ([2]; Table 3b (additional results)): 2.1 to 4 µg/mL (≈ 3.81 to 7.25 µM)
MIC ([3]; Table 3a): > 4.1 µg/mL
MIC ([3]; Table 3b (additional results)): 2.1 to 4 µg/mL (≈ 3.81 to 7.25 µM)
IC50 ([4]; Table 2a): 10 to 40 nM

CCOC(=O)c1sc2c(c1C)c(=O)n(C(C)(C)C(=O)NC(C)C)c(=O)n2C[C@H](OCCS(C)(=O)=O)c1cc(F)ccc1OC [Compound I-36, ethyl (R)-1-(2-(5-fluoro-2-methoxyphenyl)-2-(2-(methylsulfonyl)ethoxy)ethyl)-3-(1-(isopropylamino)-2-methyl-1-oxopropan-2-yl)-5-methyl-2,4-dioxo-1,2,3,4-tetrahydrothieno[2,3-d]pyrimidine-6-carboxylate]
MIC ([1]; Table 3b (additional results)): 2.1 to 4 µg/mL (≈ 3.2 to 6.1 µM)
MIC ([2]; Table 3b (additional results)): 0.25 to 1 µg/mL (≈ 0.381 to 1.52 µM)
MIC ([3]; Table 3b (additional results)): 2.1 to 4 µg/mL (≈ 3.2 to 6.1 µM)
IC50 ([4]; Table 2b (additional results)): 10 to 40 nM

CCOC(=O)c1sc2c(c1C)c(=O)n(C(C)(C)C(=O)N1CCCC1)c(=O)n2C[C@H](OCCO)c1cc(F)ccc1OC [Compound I-12, (R)-ethyl 1-(2-(5-fluoro-2-methoxyphenyl)-2-(2-hydroxy-ethoxy)ethyl)-5-methyl-3-(2-methyl-1-oxo-1-(pyrrolidin-1-yl)propan-2-yl)-2,4-dioxo-1,2,3,4-tetrahydrothieno[2,3-d]pyrimidine-6-carboxylate]
MIC ([1]; Table 3a): > 4.1 µg/mL
MIC ([1]; Table 3b (additional results)): 0.25 to 1 µg/mL (≈ 0.413 to 1.65 µM)
MIC ([2]; Table 3a): > 4.1 µg/mL
MIC ([2]; Table 3b (additional results)): 2.1 to 4 µg/mL (≈ 3.47 to 6.6 µM)
MIC ([3]; Table 3a): 2.1 to 4 µg/mL (≈ 3.47 to 6.6 µM)
MIC ([3]; Table 3b (additional results)): 2.1 to 4 µg/mL (≈ 3.47 to 6.6 µM)
IC50 ([4]; Table 2a): 3 to 10 nM
IC50 ([4]; Table 2b (additional results)): 3 to 10 nM

CCOC(=O)c1sc2c(c1C)c(=O)n(C(C)(C)C(=O)NC(C)C)c(=O)n2C[C@H](OC1CCOCC1)c1ccccc1OC [Compound I-8, (R)-ethyl 3-(1-(isopropylamino)-2-methyl-1-oxopropan-2-yl)-1-(2-(2-methoxyphenyl)-2-((tetrahydro-2H-pyran-4-yl)oxy)ethyl)-5-methyl-2,4-dioxo-1,2,3,4-tetrahydrothieno[2,3-d]pyrimidine-6-carboxylate]
MIC ([1]; Table 3a): 1.1 to 2 µg/mL (≈ 1.79 to 3.25 µM)
MIC ([1]; Table 3b (additional results)): 2.1 to 4 µg/mL (≈ 3.41 to 6.5 µM)
MIC ([2]; Table 3a): 1.1 to 2 µg/mL (≈ 1.79 to 3.25 µM)
MIC ([2]; Table 3b (additional results)): 1.1 to 2 µg/mL (≈ 1.79 to 3.25 µM)
MIC ([3]; Table 3a): 0.25 to 1 µg/mL (≈ 0.406 to 1.62 µM)
MIC ([3]; Table 3b (additional results)): 2.1 to 4 µg/mL (≈ 3.41 to 6.5 µM)
IC50 ([4]; Table 2a): 10 to 40 nM
IC50 ([4]; Table 2b (additional results)): 10 to 40 nM
